The results in this text go back to patent US9796733B2, “Imidazo-pyrazine derivatives useful as soluble guanylate cyclase activators” (Merck Sharp & Dohme Corp., priority 2014, dated 2017).

For the test, the target named is T1, sGC α1/β1 heterodimer (Homo sapiens, UniProt Q02108+Q02153).
T1 construct: expressed in transfected cells; host or cells: CHO-K1 (clone #7, CHO-K1/sGC)
T1 sequence (Q02108 1-690): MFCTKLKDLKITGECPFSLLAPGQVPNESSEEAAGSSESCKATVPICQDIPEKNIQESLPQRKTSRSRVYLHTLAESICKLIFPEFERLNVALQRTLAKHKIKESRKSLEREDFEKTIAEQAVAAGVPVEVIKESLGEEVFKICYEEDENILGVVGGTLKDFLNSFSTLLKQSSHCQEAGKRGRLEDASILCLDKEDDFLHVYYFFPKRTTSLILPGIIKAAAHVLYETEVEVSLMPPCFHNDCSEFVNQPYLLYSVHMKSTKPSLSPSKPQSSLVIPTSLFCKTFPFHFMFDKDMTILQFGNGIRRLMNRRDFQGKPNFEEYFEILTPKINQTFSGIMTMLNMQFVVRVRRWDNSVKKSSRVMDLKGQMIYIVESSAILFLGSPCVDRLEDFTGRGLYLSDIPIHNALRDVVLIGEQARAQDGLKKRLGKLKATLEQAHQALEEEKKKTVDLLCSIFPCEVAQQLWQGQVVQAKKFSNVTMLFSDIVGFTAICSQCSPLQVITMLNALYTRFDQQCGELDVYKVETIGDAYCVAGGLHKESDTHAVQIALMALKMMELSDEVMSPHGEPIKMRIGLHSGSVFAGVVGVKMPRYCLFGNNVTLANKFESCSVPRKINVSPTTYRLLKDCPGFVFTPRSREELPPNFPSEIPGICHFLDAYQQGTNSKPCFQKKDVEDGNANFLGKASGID
T1 sequence (Q02153 1-619): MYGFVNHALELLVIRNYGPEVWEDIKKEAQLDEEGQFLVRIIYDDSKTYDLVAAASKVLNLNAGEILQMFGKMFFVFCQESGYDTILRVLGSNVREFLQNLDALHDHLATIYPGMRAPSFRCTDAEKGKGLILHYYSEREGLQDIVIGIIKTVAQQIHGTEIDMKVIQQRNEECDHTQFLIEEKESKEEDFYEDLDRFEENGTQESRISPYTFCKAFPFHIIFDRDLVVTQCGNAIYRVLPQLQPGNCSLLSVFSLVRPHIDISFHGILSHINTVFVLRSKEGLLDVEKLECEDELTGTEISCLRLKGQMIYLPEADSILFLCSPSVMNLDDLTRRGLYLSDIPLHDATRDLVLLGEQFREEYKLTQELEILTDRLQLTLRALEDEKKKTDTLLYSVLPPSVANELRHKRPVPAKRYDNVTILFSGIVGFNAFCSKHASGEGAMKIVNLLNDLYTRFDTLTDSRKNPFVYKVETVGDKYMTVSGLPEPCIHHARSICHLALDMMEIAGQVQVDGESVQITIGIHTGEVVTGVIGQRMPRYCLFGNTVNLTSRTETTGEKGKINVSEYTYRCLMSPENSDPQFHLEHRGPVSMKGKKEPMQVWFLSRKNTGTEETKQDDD
Put plainly: Cell-based sGC functional assay (CASA assay): cGMP generation in CHO-K1/sGC cells, HTRF detection. To be noted: for Emax: CHO-K1, percent activation relative to standard Compound A in CHO-K1/sGC cells, read-out: % Act.; for EC50: inflection point (IP) of cGMP generation in CHO-K1/sGC cells, 4P fit, activity expressed as percentage of Compound A. In short, it runs like this:
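Stable CHO-K1/sGC cells in EBSS buffer with 5 mM MgCl2, 0.05% BSA and 0.5 mM IBMX were incubated with compound (2.5% DMSO final) ±1 μM DETA-NO for 1 hr at 37° C. cGMP was measured by HTRF. Activation is expressed as % of reference HDA Compound A maximum, with IP and max fold induction from a 4P fit.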
(Time-resolved FRET reads energy transfer from a long-lived donor to a nearby acceptor.)

Usually EC50 stands for the concentration that produces a half-maximal response. Regarding `Cn1cc(C2(C)C(=O)Nc3nc(-c4cn5ccnc5c(Cc5ccc(F)cc5)n4)nc(N)c32)cn1` (stereo not shown) [Example 88B, 4-amino-2-(8-(4-fluorobenzyl)imidazo[1,2-a]pyrazin-6-yl)-5-methyl-5-(1-methyl-1H-pyrazol-4-yl)-5H-pyrrolo[2,3-d]pyrimidin-6(7H)-one], the Emax came to 79% and a half-maximal response (EC50) required 224 nM.
Regarding `CC1(c2ccc(F)cc2)C(=O)Nc2nc(-c3cn4ccnc4c(Cc4ccccc4F)n3)nc(N)c21` (stereo not shown) [Example 89A, 4-amino-2-(8-(2-fluorobenzyl)imidazo[1,2-a]pyrazin-6-yl)-5-(4-fluorophenyl)-5-methyl-5H-pyrrolo[2,3-d]pyrimidin-6(7H)-one], the Emax came out at 141% and the EC50 stood at 4 nM.
Consider `CC1(c2ccc(F)cc2)C(=O)Nc2nc(-c3cn4ccnc4c(Cc4ccc(F)cc4)n3)nc(N)c21` (stereo not shown) [Example 92A, 4-amino-2-(8-(4-fluorobenzyl)imidazo[1,2-a]pyrazin-6-yl)-5-(4-fluorophenyl)-5-methyl-5H-pyrrolo[2,3-d]pyrimidin-6(7H)-one], for which the Emax came out at 97% and a half-maximal response (EC50) required 9 nM.
For `CC1(c2ccc(F)cc2)C(=O)Nc2nc(-c3cn4ccnc4c(Cc4ccccc4)n3)nc(N)c21` (stereo not shown) [Example 93A, 4-amino-2-(8-benzylimidazo[1,2-a]pyrazin-6-yl)-5-(4-fluorophenyl)-5-methyl-5H-pyrrolo[2,3-d]pyrimidin-6(7H)-one], the Emax came to 109% and the concentration for a half-maximal effect (EC50) worked out at 12 nM.
Regarding `CC1(c2ccc(F)cc2)C(=O)Nc2nc(-c3cn4ccnc4c(Cc4cccc(Cl)c4)n3)nc(N)c21` (stereo not shown) [Example 94A, 4-amino-2-(8-(3-chlorobenzyl)imidazo[1,2-a]pyrazin-6-yl)-5-(4-fluorophenyl)-5-methyl-5H-pyrrolo[2,3-d]pyrimidin-6(7H)-one], the Emax was determined as 108% and the midpoint of the response, the EC50, lay at 5 nM.
For `CC1(c2ccc(Cl)cc2)C(=O)Nc2nc(-c3cn4ccnc4c(Cc4cccc(Cl)c4)n3)nc(N)c21` (stereo not shown) [Example 95A, 4-amino-2-(8-(3-chlorobenzyl)imidazo[1,2-a]pyrazin-6-yl)-5-(4-chlorophenyl)-5-methyl-5H-pyrrolo[2,3-d]pyrimidin-6(7H)-one], in that order: 109% and 4 nM.
Turning to `CC1(c2ccc(F)cc2)C(=O)Nc2nc(-c3cn4ccnc4c(Cc4ccc(F)c(F)c4)n3)nc(N)c21` (stereo not shown) [Example 96A, 4-amino-2-(8-(3,4-difluorobenzyl)imidazo[1,2-a]pyrazin-6-yl)-5-(4-fluorophenyl)-5-methyl-5H-pyrrolo[2,3-d]pyrimidin-6(7H)-one], the Emax came to 106% and the EC50 was found to be 4 nM.
Consider `CC1(c2ccc(Cl)cc2)C(=O)Nc2nc(-c3cn4ccnc4c(Cc4ccc(F)c(F)c4)n3)nc(N)c21` (stereo not shown) [Example 97A, 4-amino-5-(4-chlorophenyl)-2-(8-(3,4-difluorobenzyl)imidazo[1,2-a]pyrazin-6-yl)-5-methyl-5H-pyrrolo[2,3-d]pyrimidin-6(7H)-one], for which the Emax came to 145% and it took 5 nM to reach a half-maximal effect (EC50).
On to `CC1(c2ccc(F)cc2)C(=O)Nc2nc(-c3cn4ccnc4c(Cc4c(F)ccc(F)c4F)n3)nc(N)c21` (stereo not shown) [Example 98A, 4-amino-5-(4-fluorophenyl)-5-methyl-2-(8-(2,3,6-trifluorobenzyl)imidazo[1,2-a]pyrazin-6-yl)-5H-pyrrolo[2,3-d]pyrimidin-6(7H)-one], for which the Emax is 110% and the EC50 amounted to 13 nM.
Regarding `CC1(c2ccc(Cl)cc2)C(=O)Nc2nc(-c3cn4ccnc4c(Cc4ccc(F)cc4)n3)nc(N)c21` (stereo not shown) [Example 99A, 4-amino-5-(4-chlorophenyl)-2-(8-(4-fluorobenzyl)imidazo[1,2-a]pyrazin-6-yl)-5-methyl-5H-pyrrolo[2,3-d]pyrimidin-6(7H)-one], the Emax amounted to 119% and a half-maximal response (EC50) required 11 nM.
As for `CC1(c2ccccc2)C(=O)Nc2nc(-c3cn4ccnc4c(Cc4cccc(F)c4)n3)nc(N)c21` (stereo not shown) [Example 101B, 4-amino-2-(8-(3-fluorobenzyl)imidazo[1,2-a]pyrazin-6-yl)-5-methyl-5-phenyl-5H-pyrrolo[2,3-d]pyrimidin-6(7H)-one], the Emax amounted to 116% and the EC50 is 34 nM.
For `CC1(c2ccccc2)C(=O)Nc2nc(-c3cn4ccnc4c(Cc4ccccc4)n3)nc(N)c21` (stereo not shown) [Example 102B, 4-amino-2-(8-benzylimidazo[1,2-a]pyrazin-6-yl)-5-methyl-5-phenyl-5H-pyrrolo[2,3-d]pyrimidin-6(7H)-one] the same measures were 89% and 15 nM.
For `CC1(c2ccccn2)C(=O)Nc2nc(-c3cn4ccnc4c(Cc4ccc(F)cc4)n3)nc(N)c21` (stereo not shown) [Example 103B, 4-amino-2-(8-(4-fluorobenzyl)imidazo[1,2-a]pyrazin-6-yl)-5-methyl-5-(pyridin-2-yl)-5H-pyrrolo[2,3-d]pyrimidin-6(7H)-one] the same measures were 85% and 18 nM.
`Nc1nc(-c2cn3ccnc3c(Cc3ccc(F)cc3)n2)nc2c1C(c1ccc(F)cn1)(C1CC1)C(=O)N2` (stereo not shown) [Example 104A, 4-amino-5-cyclopropyl-2-(8-(4-fluorobenzyl)imidazo[1,2-a]pyrazin-6-yl)-5-(5-fluoropyridin-2-yl)-5H-pyrrolo[2,3-d]pyrimidin-6(7H)-one]: the Emax turned out to be 132% and the EC50 amounted to 396 nM.
For `Cc1ccc(C2(C)C(=O)Nc3nc(-c4cn5ccnc5c(Cc5ccc(F)cc5)n4)nc(N)c32)cn1` (stereo not shown) [Example 105A, 4-amino-2-(8-(4-fluorobenzyl)imidazo[1,2-a]pyrazin-6-yl)-5-methyl-5-(6-methylpyridin-3-yl)-5H-pyrrolo[2,3-d]pyrimidin-6(7H)-one], in that order: 102% and 384 nM.
Turning to `CCC1(c2ccc(F)cn2)C(=O)Nc2nc(-c3cn4ccnc4c(Cc4ccc(F)cc4)n3)nc(N)c21` (stereo not shown) [Example 106A, 4-amino-5-ethyl-2-(8-(4-fluorobenzyl)imidazo[1,2-a]pyrazin-6-yl)-5-(5-fluoropyridin-2-yl)-5H-pyrrolo[2,3-d]pyrimidin-6(7H)-one], the Emax was 83% and the response was half-maximal at 252 nM (EC50).
On to `CC1(c2ccc(Cl)cn2)C(=O)Nc2nc(-c3cn4ccnc4c(Cc4ccc(F)cc4)n3)nc(N)c21` (stereo not shown) [Example 107A, 4-amino-5-(5-chloropyridin-2-yl)-2-(8-(4-fluorobenzyl)imidazo[1,2-a]pyrazin-6-yl)-5-methyl-5H-pyrrolo[2,3-d]pyrimidin-6(7H)-one], for which the Emax is 171% and the EC50 stood at 86 nM.
`Nc1nc(-c2cn3ccnc3c(Cc3ccccc3F)n2)nc2c1C(c1ccc(Cl)cn1)(C1CC1)C(=O)N2` (stereo not shown) [Example 110A, 4-amino-5-(5-chloropyridin-2-yl)-5-cyclopropyl-2-(8-(2-fluorobenzyl)imidazo[1,2-a]pyrazin-6-yl)-5H-pyrrolo[2,3-d]pyrimidin-6(7H)-one]: the Emax is 154% and the EC50 is 51 nM.
As for `CC1(c2ccc(Cl)c(F)c2)C(=O)Nc2nc(-c3cn4ccnc4c(CC4CCC4)n3)nc(N)c21` (stereo not shown) [Example 113B, 4-amino-5-(4-chloro-3-fluorophenyl)-2-(8-(cyclobutylmethyl)imidazo [1,2-a]pyrazin-6-yl)-5-methyl-5H-pyrrolo[2,3-d]pyrimidin-6(7H)-one], the Emax was 138% and the EC50 was 5 nM.
Consider `CC1(c2ccc(Cl)cn2)C(=O)Nc2nc(-c3cn4ccnc4c(CC4CCC4)n3)nc(N)c21` (stereo not shown) [Example 116A, 4-amino-5-(5-chloropyridin-2-yl)-2-(8-(cyclobutylmethyl)imidazo [1,2-a]pyrazin-6-yl)-5-methyl-5H-pyrrolo[2,3-d]pyrimidin-6(7H)-one], for which the Emax came to 79% and the EC50 was determined as 10 nM.
